Experimental data as given in article PMC10149257, “Substrate recognition and proton coupling by a bacterial member of solute carrier family 17” (The Journal of Biological Chemistry, 2023).

Legend:
Sialin [1] = biological target: T1, Sialin (Rattus norvegicus, UniProt Q5Q0U0); assay: inhibition of 3H-glucuronic acid uptake by unlabelled compound in transfected HEK293T cells; type: cell-based; settings: room temperature, 4 min, Ringer's solution; self-competition with labelled compound
T1 construct: gene Slc17a5
T1 sequence (Q5Q0U0 1-495): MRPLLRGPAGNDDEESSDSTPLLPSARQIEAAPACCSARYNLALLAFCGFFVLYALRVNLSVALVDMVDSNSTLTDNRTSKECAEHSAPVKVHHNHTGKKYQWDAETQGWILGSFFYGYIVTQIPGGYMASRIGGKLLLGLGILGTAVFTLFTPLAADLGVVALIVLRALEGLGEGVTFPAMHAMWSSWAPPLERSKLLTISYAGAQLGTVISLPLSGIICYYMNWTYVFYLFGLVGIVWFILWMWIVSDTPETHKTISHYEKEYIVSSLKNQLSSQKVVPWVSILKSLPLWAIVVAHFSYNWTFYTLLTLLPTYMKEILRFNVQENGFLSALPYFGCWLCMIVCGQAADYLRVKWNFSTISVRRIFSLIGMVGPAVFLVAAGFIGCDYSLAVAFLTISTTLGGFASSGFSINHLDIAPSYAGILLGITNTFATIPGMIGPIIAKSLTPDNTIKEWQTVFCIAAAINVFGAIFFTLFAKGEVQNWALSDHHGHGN

Sialin [2] = biological target: T2, Sialin (Rattus norvegicus, UniProt Q5Q0U0, Y54F, form not given); assay: as above; type: cell-based; settings: room temperature, 4 min, Ringer's solution; self-competition with labelled compound
T2 construct: gene Slc17a5
T2 sequence (Q5Q0U0 1-495 Y54F): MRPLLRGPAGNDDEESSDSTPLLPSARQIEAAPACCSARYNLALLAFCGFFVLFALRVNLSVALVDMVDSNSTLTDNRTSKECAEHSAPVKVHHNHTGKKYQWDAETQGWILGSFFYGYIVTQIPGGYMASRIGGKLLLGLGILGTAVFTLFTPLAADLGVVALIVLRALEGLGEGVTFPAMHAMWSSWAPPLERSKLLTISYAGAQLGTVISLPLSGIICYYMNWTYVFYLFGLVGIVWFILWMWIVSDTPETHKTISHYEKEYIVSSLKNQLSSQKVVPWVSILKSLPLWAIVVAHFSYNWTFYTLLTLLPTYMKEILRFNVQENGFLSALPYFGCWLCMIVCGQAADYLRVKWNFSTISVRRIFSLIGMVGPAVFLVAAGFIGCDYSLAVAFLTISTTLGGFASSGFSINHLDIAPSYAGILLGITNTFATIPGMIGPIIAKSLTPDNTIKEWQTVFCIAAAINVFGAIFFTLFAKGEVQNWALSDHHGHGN

[3] = test system: T3, O=C(O)[C@H](O)[C@@H](O)[C@@H](O)[C@H](O)CO; assay: cells, lysate or membranes; type: cell-based, Escherichia coli; settings: 150 mM KCl, pH 6, 30 °C, 30 s, H+ cotransport, labelled compound
T3 construct: full length, C-terminal modified decahistidine tag, pBAD; expressed in dgoT-deleted E. coli (Keio dgoT727(del)::kan)

[4] = substrate: O=C(O)[C@H](O)[C@@H](O)[C@@H](O)[C@H](O)CO; assay: cells, lysate or membranes; type: cell-based, Escherichia coli; settings: 150 mM KCl, pH 6, 30 °C, 20 s, H+ cotransport, labelled compound

O=C(O)[C@H]1OC(O)[C@H](O)[C@@H](O)[C@@H]1O (stereo partly shown) [glucuronic acid]
IC50 (Sialin [1]): ~2 mM | IC50 (Sialin [2]): ~3 mM

DgoT (Escherichia coli; Y44F)
Km [3]: 22.8 ± 7.7 µM

B1: DgoT (Escherichia coli) (protein)
chain: MVSGFAMPKIWRKLAMDIPVNAAKPGRRRYLTLVMIFITVVICYVDRANLAVASAHIQEEFGITKAEMGYVFSAFAWLYTLCQIPGGWFLDRVGSRVTYFIAIFGWSVATLFQGFATGLMSLIGLRAITGIFEAPAFPTNNRMVTSWFPEHERASAVGFYTSGQFVGLAFLTPLLIWIQEMLSWHWVFIVTGGIGIIWSLIWFKVYQPPRLTKGISKAELDYIRDGGGLVDGDAPVKKEARQPLTAKDWKLVFHRKLIGVYLGQFAVASTLWFFLTWFPNYLTQEKGITALKAGFMTTVPFLAAFVGVLLSGWVADLLVRKGFSLGFARKTPIICGLLISTCIMGANYTNDPMMIMCLMALAFFGNGFASITWSLVSSLAPMRLIGLTGGVFNFAGGLGGITVPLVVGYLAQGYGFAPALVYISAVALIGALSYILLVGDVKRVG
notes: full length, C-terminal modified decahistidine tag, pBAD; expressed in dgoT-deleted E. coli (Keio dgoT727(del)::kan)
Km [4]: 1.97 ± 1.1 µM
